In ChEMBL document CHEMBL1201862, “PubChem BioAssay data set” (2004):
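Method: 48-hour compound exposure of cells in 96-well plates, five concentrations, linear interpolation of endpoints. At the GI50, growth is halved.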 Active and inactive are the calls of the source. Rule as the data show it: active = GI50 up to about 1.1 µM and inactive = higher.

How the values were obtained:
Assay in all cases: NCI anticancer screen, dose series, 48 h
[1] = test system: SNB-19
[2] = test system: ACHN
[3] = test system: MOLT-4
[4] = test system: IGROV-1
[5] = test system: HCC 2998
[6] = test system: HCT-15
[7] = test system: UO-31
[8] = test system: KM12
[9] = test system: DLD-1
[10] = test system: CCRF-CEM
[11] = test system: RPMI-8226
[12] = test system: HOP-18
[13] = test system: KM-20L2
[14] = test system: TK-10
[15] = test system: HL-60
[16] = test system: SNB-75
[17] = test system: M14
[18] = test system: HOP-92
[19] = test system: CAKI-1
[20] = test system: HOP-62
[21] = test system: HT-29
[22] = test system: UACC-62
[23] = test system: DMS-114
[24] = test system: SN12C
[25] = test system: A498
[26] = test system: SF-295
[27] = test system: SK-OV-3
[28] = test system: NCI-H226
[29] = test system: SK-MEL-28
[30] = test system: OVCAR-8
[31] = test system: COLO 205
[32] = test system: NCI-H23
[33] = test system: RXF 631
[34] = test system: EKVX
[35] = test system: M19-MEL
[36] = test system: SF-268
[37] = test system: UACC-257
[38] = test system: SW-620
[39] = test system: XF498
[40] = test system: SF-539
[41] = test system: DMS-273
[42] = test system: K562
[43] = test system: NCI-H460
[44] = test system: OVCAR-3
[45] = test system: SK-MEL-5
[46] = test system: U-251
[47] = test system: Malme-3M
[48] = test system: 786-0
[49] = test system: LXFL 529
[50] = test system: OVCAR-5
[51] = test system: HCT-116
[52] = test system: LOX IMVI
[53] = test system: OVCAR-4
[54] = test system: SR
[55] = test system: A549
[56] = test system: SK-MEL-2

In the case of `COc1ccccc1NC(=O)C1=C(C)NC(C)=C(C(=O)Nc2ccccc2OC)C1c1ccccc1Cl`, the GI50 [1] was > 100 µM (inactive), the GI50 [2] was 55.7 µM (inactive) and the GI50 [3] was 27.2 µM (inactive). For the same compound, the GI50 [4] was > 100 µM (inactive), the GI50 [5] was > 100 µM (inactive) and the GI50 [6] was 56.2 µM. For the same compound, the GI50 [7] was 28.5 µM (inactive), the GI50 [8] was 61 µM (inactive) and the GI50 [9] was > 100 µM (inactive). The GI50 [10] was 38.4 µM (inactive), the GI50 [11] was 30.7 µM (inactive) and the GI50 [12] was > 100 µM (inactive). The GI50 [13] was 56.5 µM (inactive), the GI50 [14] was > 100 µM (inactive) and the GI50 [15] was 53.6 µM (inactive). The GI50 [16] was 46.9 µM (inactive), the GI50 [17] was 91 µM (inactive) and the GI50 [18] was > 100 µM (inactive). The GI50 [19] was > 100 µM (inactive), the GI50 [20] was > 100 µM (inactive) and the GI50 [21] was 64.1 µM (inactive). For the same compound, the GI50 [22] was > 100 µM (inactive), the GI50 [23] was 45.5 µM (inactive) and the GI50 [24] was > 100 µM (inactive). The GI50 [25] was > 100 µM (inactive), the GI50 [26] was > 100 µM (inactive) and the GI50 [27] was > 100 µM (inactive). The GI50 [28] was > 100 µM (inactive), the GI50 [29] was > 100 µM (inactive) and the GI50 [30] was > 100 µM (inactive). The GI50 [31] was > 100 µM (inactive), the GI50 [32] was > 100 µM (inactive) and the GI50 [33] was > 100 µM (inactive). The GI50 [34] was 53.5 µM (inactive), the GI50 [35] was > 100 µM (inactive) and the GI50 [36] was > 100 µM (inactive). For the same compound, the GI50 [37] was > 100 µM (inactive), the GI50 [38] was > 100 µM (inactive) and the GI50 [39] was 37.7 µM (inactive). The GI50 [40] was 26.1 µM (inactive), the GI50 [41] was > 100 µM (inactive) and the GI50 [42] was 32.7 µM (inactive). For the same compound, the GI50 [43] was 59.3 µM (inactive), the GI50 [44] was > 100 µM (inactive) and the GI50 [45] was 47.8 µM (inactive). The GI50 [46] was 78.3 µM (inactive), the GI50 [47] was > 100 µM (inactive) and the GI50 [48] was > 100 µM (inactive). The GI50 [49] was > 100 µM (inactive), the GI50 [50] was > 100 µM (inactive) and the GI50 [51] was 52.8 µM (inactive). The GI50 [52] was > 100 µM (inactive), the GI50 [53] was > 100 µM (inactive) and the GI50 [54] was 36.6 µM (inactive). For the same compound, the GI50 [55] was 41.6 µM (inactive) and the GI50 [56] was 88.7 µM (inactive).
